# Laboratory results from patent US20160220602A1, “USE OF CHINESE MEDICINE PREPARATION IN PREPARING DRUG FOR PREVENTING AND/OR TREATING CROHN'S DISEASE” (TASLY PHARMACEUTICAL GROUP CO., LTD., priority 2013, published 2016).
# What was measured:
# Format in all cases: in vivo, SD rats
# [1] = test system: TNBS-induced SD rat Crohn's disease model; assay: DAI score in TNBS-caused Crohn's disease rat model; settings: TNBS model rats, 100 mg/kg
# Method: Grouping: experiment was carried out by using two ways of intracolonic and intragastric administrations. […] There were 10 rats each group. Method for establishing rat model: referring to Morris method, TNBS was used to induce the SD rat Crohn's disease model (abbreviated as “TNBS model”). 24 hours before modeling, the SD rats were fasted but water was given. […] The rats of blank control group were normally fed with free access to water and the same volume of normal saline was given in the same administration routes by referring to the dosage regime of aforementioned treatment groups. The rats of model group were administrated with the same volume of normal saline in the same administration routes. […] (1) General Indices: weight change and stool (e.g. fecal occult blood, bloody stool and diarrhea) was observed every day to calculate DAI (disease activity index) score. DAI score=(weight loss percentage+stool character fraction+hematochezia fraction)/3 [table]
# IL-4 [2] = assay: Serum IL-4 by ELISA, TNBS model rats; settings: 100 mg/kg once per day, 21 days
# Method: (§1) Grouping: experiment was carried out by using two ways of intracolonic and intragastric administrations. […] There were 10 rats each group. Method for establishing rat model: referring to Morris method, TNBS was used to induce the SD rat Crohn's disease model (abbreviated as “TNBS model”). 24 hours before modeling, the SD rats were fasted but water was given. […] The rats of blank control group were normally fed with free access to water and the same volume of normal saline was given in the same administration routes by referring to the dosage regime of aforementioned treatment groups. The rats of model group were administrated with the same volume of normal saline in the same administration routes. […] (2) Serum indices: after final administration, the testing rats were fasted but given water. 24 hours later, blood was gained from abdominal aorta. Serum IFN-γ, IL-1, IL-4, IL-10 and Gln in intestinal mucosa were determined by enzyme-linked immunosorbent assay (ELISA) in rats.
# IL-1 = assay: Serum IL-1 by ELISA, TNBS model rats; settings: 100 mg/kg once per day, 21 days
# Method: as §1
# IL-4 [3] = assay: Serum IL-4 by ELISA, OXZ model rats; settings: 100 mg/kg once per day, 11 days
# Method: Grouping: the experiment was carried out by using two ways of intracolonic and intragastric administration. […] There were 10 rats each group. Method for establishing rat model: referring to the Heller method, OXZ was used to induce the SD rat Crohn's disease model (abbreviated as “OXZ model”). Neck and back skin of rats were shaved (2 cm×2 cm). Ethanol was used to prepare 5% (w/v) OXZ solution, and 0.3 ml resultant OXZ solution was dripped on the skin of rats. After the solution was air-dried naturally, skin allergy occurred in rats. The sensitized rats were adaptively raised for 5 days, […] anesthetized by intraperitoneal injection of pentobarbital sodium. […] After completion, the rats were inverted by lifting tails for 60s to make the solution totally absorbed. […] If the rats manifested dark hair color, body weight loss, poor appetite, lassitude, watery stool or diarrhea, the model establishment was success. Administration method: after successful model establishment by OXZ, the drug was given to rats. The TCM preparation k saline solutions at corresponding dose were administered to the groups of preparation k of all doses and the […] saline solution, a positive drug, administrated to the positive control group. […] Serum IFN-γ, IL-4, and Gln in intestinal mucosa were determined by ELISA in rats.
# [4] = test system: TNBS-induced SD rat Crohn's disease model; assay: Colon gross damage and histopathological score, TNBS model rats; settings: 100 mg/kg
# Method: Grouping: experiment was carried out by using two ways of intracolonic and intragastric administrations. […] There were 10 rats each group. Method for establishing rat model: referring to Morris method, TNBS was used to induce the SD rat Crohn's disease model (abbreviated as “TNBS model”). 24 hours before modeling, the SD rats were fasted but water was given. […] The rats of blank control group were normally fed with free access to water and the same volume of normal saline was given in the same administration routes by referring to the dosage regime of aforementioned treatment groups. The rats of model group were administrated with the same volume of normal saline in the same administration routes. […] (3) Pathological indices: the colon of rats was taken out. The gross colon tissue damage was scored, subsequently examined and scored histopathologically by conventional HE staining. […] [table]
compound,measurement,setting,value
"Nc1ccc(O)c(C(=O)O)c1 [mesalamine, Mesalamine]",DAI score (Mean ± SD),"[1]; intracolonic, 0th day (1 day before model established)",0.000 ± 0.000
same,DAI score (Mean ± SD),"[1]; intracolonic, 2nd day",1.867 ± 0.571
same,DAI score (Mean ± SD),"[1]; intracolonic, 3rd day",2.100 ± 0.754
same,DAI score (Mean ± SD),"[1]; intracolonic, 4th day",2.067 ± 0.7217
same,DAI score (Mean ± SD),"[1]; intracolonic, 5th day",1.733 ± 0.562
same,DAI score (Mean ± SD),"[1]; intracolonic, 6th day",1.367 ± 0.532
same,DAI score (Mean ± SD),"[1]; intracolonic, 7th day",1.267 ± 0.467
same,DAI score (Mean ± SD),"[1]; intracolonic, 8th day",1.167 ± 0.360
same,DAI score (Mean ± SD),"[1]; intracolonic, 9th day",1.067 ± 0.306
same,DAI score (Mean ± SD),"[1]; intracolonic, 10th day",1.000 ± 0.314
same,DAI score (Mean ± SD),"[1]; intracolonic, 11th day",0.933 ± 0.211
same,DAI score (Mean ± SD),"[1]; intracolonic, 12th day",0.833 ± 0.236
same,DAI score (Mean ± SD),"[1]; intracolonic, 13th day",0.833 ± 0.236
same,DAI score (Mean ± SD),"[1]; intracolonic, 14th day",0.767 ± 0.353
same,DAI score (Mean ± SD),"[1]; intracolonic, 15th day",0.733 ± 0.344
same,DAI score (Mean ± SD),"[1]; intragastric, 0th day (1 day before model established)",0.000 ± 0.000
same,DAI score (Mean ± SD),"[1]; intragastric, 2nd day",1.519 ± 0.412
same,DAI score (Mean ± SD),"[1]; intragastric, 3rd day",1.481 ± 0.380
same,DAI score (Mean ± SD),"[1]; intragastric, 4th day",1.333 ± 0.333
same,DAI score (Mean ± SD),"[1]; intragastric, 5th day",1.111 ± 0.333
same,DAI score (Mean ± SD),"[1]; intragastric, 6th day",1.037 ± 0.261
same,DAI score (Mean ± SD),"[1]; intragastric, 7th day",1.000 ± 0.236
same,DAI score (Mean ± SD),"[1]; intragastric, 8th day",0.963 ± 0.309
same,DAI score (Mean ± SD),"[1]; intragastric, 9th day",0.889 ± 0.289
same,DAI score (Mean ± SD),"[1]; intragastric, 10th day",0.741 ± 0.324
same,DAI score (Mean ± SD),"[1]; intragastric, 15th day",0.481 ± 0.242
same,DAI score (Mean ± SD),"[1]; intragastric, 16th day",0.481 ± 0.242
same,DAI score (Mean ± SD),"[1]; intragastric, 18th day",0.333 ± 0.236
same,DAI score (Mean ± SD),"[1]; intragastric, 19th day",0.259 ± 0.147
same,DAI score (Mean ± SD),"[1]; intragastric, 20th day",0.222 ± 0.167
same,IL-4 serum content (Mean ± SD),IL-4 [2]; intracolonic,96.80 ± 27.51 pg/mL
same,IL-4 serum content (Mean ± SD),IL-4 [2]; intragastric,75.80 ± 17.47 pg/mL
same,IL-1 serum content (Mean ± SD),IL-1; intracolonic,167.66 ± 26.95 pg/mL
same,IL-1 serum content (Mean ± SD),IL-1; intragastric,154.59 ± 39.98 pg/mL
same,IL-4 serum content (Mean ± SD),IL-4 [3]; intracolonic,86.63 ± 11.20 pg/mL
same,IL-4 serum content (Mean ± SD),IL-4 [3]; intragastric,86.86 ± 7.84 pg/mL
same,Gross damage score (Mean ± SD),[4]; intracolonic,0.500 ± 0.707
same,Histopathological score (Mean ± SD),[4]; intracolonic,1.00 ± 1.10
same,Gross damage score (Mean ± SD),[4]; intragastric,0.556 ± 0.527
same,Histopathological score (Mean ± SD),[4]; intragastric,0.83 ± 0.41
